Our source for the IC50 values is BindingDB's records for doi:10.1016/s0960-894x(03)00105-7 (University of California Irvine, 2003).

In general, IC50 refers to the concentration at which inhibition is half-maximal. A higher IC50 goes with a need for much substance.

The target in this assay is Serine/threonine-protein phosphatase 2A catalytic subunit alpha. As to the kind of experiment: Inhibition of protein phosphatase 2A (PP2A) was determined by standard phosphorylase a inhibition assay.
For the molecule `CO[C@@H]([C@H](O)CC(=O)[C@@H](C)[C@@H](O)CC[C@@H](C)[C@@H]1O[C@]2(CC[C@@H](C)[C@H](CC[C@H](C)C(C)=O)O2)CC[C@@H]1C)[C@H](OC(=O)CCCP(=O)(O)O)C(C)C` [4-Phosphono-butyric acid (1R,2S,3R,6S,7S,10R)-10-[(2S,3S,6R,8S,9R)-3,9-dimethyl-8-((S)-3-methyl-4-oxo-pentyl)-1,7-dioxa-spiro[5.5]undec-2-yl]-3,7-dihydroxy-1-isopropyl-2-methoxy-6-methyl-5-oxo-undecyl ester], the IC50 amounted to 300 µM.

`CO[C@@H]([C@H](O)CC(=O)[C@@H](C)[C@@H](O)CC[C@@H](C)[C@@H]1O[C@]2(CC[C@@H](C)[C@H](CC[C@H](C)C(C)=O)O2)CC[C@@H]1C)[C@H](OC(=O)C[C@@H](O)/C=C(\C)C(=O)O)C(C)C` [(E)-(R)-4-Hydroxy-2-methyl-hex-2-enedioic acid 6-{(1R,2S,3R,6S,7S,10R)-10-[(2S,3S,6R,8S,9R)-3,9-dimethyl-8-((S)-3-methyl-4-oxo-pentyl)-1,7-dioxa-spiro[5.5]undec-2-yl]-3,7-dihydroxy-1-isopropyl-2-methoxy-6-methyl-5-oxo-undecyl} ester] showed an IC50 of 4 µM.

Molecule `CO[C@@H]([C@H](O)CC(=O)[C@@H](C)[C@@H](O)CC[C@@H](C)[C@@H]1O[C@]2(CC[C@@H](C)[C@H](CC[C@H](C)C(C)=O)O2)CC[C@@H]1C)[C@H](OC(=O)C[C@@](C)(O)C(=O)O)C(C)C` [(R)-2-Hydroxy-2-methyl-succinic acid 4-{(1R,2S,3R,6S,7S,10R)-10-[(2S,3S,6R,8S,9R)-3,9-dimethyl-8-((S)-3-methyl-4-oxo-pentyl)-1,7-dioxa-spiro[5.5]undec-2-yl]-3,7-dihydroxy-1-isopropyl-2-methoxy-6-methyl-5-oxo-undecyl} ester] returned an IC50 of 100 µM. Compared with the last molecule, the IC50 is about 25-fold higher.

In turn, `CO[C@@H]([C@H](O)CC(=O)[C@@H](C)[C@@H](O)CC[C@@H](C)[C@@H]1O[C@]2(CC[C@@H](C)[C@H](CC[C@H](C)C(C)=O)O2)CC[C@@H]1C)[C@H](OC(=O)C[C@](C)(O)C(=O)O)C(C)C` [(S)-2-Hydroxy-2-methyl-succinic acid 4-{(1R,2S,3R,6S,7S,10R)-10-[(2S,3S,6R,8S,9R)-3,9-dimethyl-8-((S)-3-methyl-4-oxo-pentyl)-1,7-dioxa-spiro[5.5]undec-2-yl]-3,7-dihydroxy-1-isopropyl-2-methoxy-6-methyl-5-oxo-undecyl} ester] yielded an IC50 of 29 µM.
